Data reported in ChEMBL document CHEMBL5236670 (Bioorg Med Chem Lett, 2023).
The source made the active and inactive calls. The rule behind the calls is not given here.

Legend:
[1] = biological target: Glycogen synthase kinase-3 beta (Homo sapiens, UniProt P49841); assay: Inhibition of GSK-3beta (unknown origin) incubated for 1 hr by HTRF assay
[2] = Metabolic stability in human liver microsomes assessed as compound remaining at 0.5 uM after 10 mins; assay type: ADME, Microsome; details: read-out: Stability
[3] = Metabolic stability in rat liver microsomes assessed as compound remaining at 0.5 uM after 10 mins; assay type: ADME, Microsome; details: read-out: Stability
[4] = Metabolic stability in mouse liver microsomes assessed as compound remaining at 0.5 uM after 10 mins; assay type: ADME, Microsome; details: read-out: Stability
Mus musculus = assay: Anti-alzheimer activity in triple-transgenic mouse model at 30 mg/kg, po; assay type: functional, organism-based

Chain of Glycogen synthase kinase-3 beta (P49841 whole entry): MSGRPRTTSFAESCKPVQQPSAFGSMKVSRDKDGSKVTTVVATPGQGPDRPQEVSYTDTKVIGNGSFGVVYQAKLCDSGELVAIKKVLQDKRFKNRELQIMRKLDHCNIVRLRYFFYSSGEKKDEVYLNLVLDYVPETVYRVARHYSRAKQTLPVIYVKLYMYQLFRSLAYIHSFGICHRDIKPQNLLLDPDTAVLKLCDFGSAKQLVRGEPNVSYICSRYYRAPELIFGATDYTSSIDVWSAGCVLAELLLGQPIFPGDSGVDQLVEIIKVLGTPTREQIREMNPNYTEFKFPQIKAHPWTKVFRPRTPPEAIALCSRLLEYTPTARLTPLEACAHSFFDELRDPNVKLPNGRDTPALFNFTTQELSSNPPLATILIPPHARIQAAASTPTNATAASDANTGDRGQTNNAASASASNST

Compound | IC50 [1] [nM] | remaining at 10 min, 0.5 µM [2] [%] | remaining at 10 min, 0.5 µM [3] [%] | remaining at 10 min, 0.5 µM [4] [%] | Activity (Mus musculus)
O=C(Nc1cnccc1N1CCC(F)(F)CC1)c1ccnc(NC(=O)[C@H]2C[C@@H](Cl)C2)c1 | 0.16 |  |  |  | 
O=C(Nc1cnccc1-c1ccc(Cl)cc1)c1ccnc(NC(=O)[C@H]2C[C@H](F)C2)c1 | 1.7 |  |  |  | 
O=C(Nc1cnccc1C1CCCCC1)c1ccnc(NC(=O)C2CC2)c1 |  | 1 | 0.4 | 0.6 | 
O=C(Nc1cnccc1-c1ccccc1)c1ccnc(NC(=O)C2CCOCC2)c1 | 4.5 |  |  |  | 
CC(C)C(=O)Nc1cc(C(=O)Nc2cnccc2OCC(C)(F)F)ccn1 | 1.4 |  |  |  | 
O=C(Nc1cnccc1-c1ccc(Cl)cc1)c1ccnc(NC(=O)[C@H]2C[C@@H](F)C2)c1 | 6.9 |  |  |  | 
O=C(Nc1cnccc1N1CCC(F)(F)CC1)c1ccnc(NC(=O)C2CC2)c1 | 0.19 | 25 | 6 | 0.2 | 
O=C(Nc1cncc(-c2ccccc2)c1)c1ccnc(NC(=O)C2CC2)c1 | 9 |  |  |  | 
CC(O)c1ccncc1NC(=O)c1ccnc(NC(=O)C2CC2)c1 (centres undefined) |  | 100 | 100 | 77 | 
O=C(Nc1cncc(-c2cccc(F)c2F)c1)c1ccnc(NC(=O)C2CC2)c1 | 2.6 |  |  |  | 
CC(C)(O)c1ccncc1NC(=O)c1ccnc(NC(=O)C2CC2)c1 | 0.1 | 87 | 100 | 27 | 
O=C(Nc1cncc(-c2cc(F)ccc2F)c1)c1ccnc(NC(=O)C2CC2)c1 | 3.7 |  |  |  | 
O=C(Nc1cnccc1N1CCC(F)(F)CC1)c1ccnc(NC(=O)[C@H]2C[C@H](Cl)C2)c1 | 0.37 |  |  |  | 
O=C(Nc1cncc(-c2cccc(F)c2F)c1)c1ccnc(NC(=O)C2CCC(F)(F)C2)c1 (centres undefined) | 2.5 |  |  |  | 
O=C(Nc1cnccc1-c1ccccc1)c1ccnc(NC(=O)C2CCCC2)c1 | 2.1 |  |  |  | 
CC(F)C(=O)Nc1cc(C(=O)Nc2cnccc2-c2ccccc2)ccn1 (centres undefined) | 49 |  |  |  | 
Cc1ccncc1NC(=O)c1ccnc(NC(=O)C2CC2)c1 |  | 93 | 97 | 82 | 
C[C@@H]1CN(c2ccncc2NC(=O)c2ccnc(NC(=O)C3CC3)c2)C[C@H](C)O1 |  | 34 | 26 | 4 | 

Compound | IC50 [1] [nM] | remaining at 10 min, 0.5 µM [2] [%] | remaining at 10 min, 0.5 µM [3] [%] | remaining at 10 min, 0.5 µM [4] [%] | Activity (Mus musculus)
O=C(Nc1cnccc1C1CCCC1)c1ccnc(NC(=O)C2CC2)c1 |  | 7 | 1 | 0.5 | 
C[C@H]1COCCN1c1ccncc1NC(=O)c1ccnc(NC(=O)C2CC2)c1 |  | 9 | 3 | 0.2 | 
O=C(Nc1cnccc1C1CCC1)c1ccnc(NC(=O)C2CC2)c1 |  | 72 | 43 | 1 | 
C=C(C)c1ccncc1NC(=O)c1ccnc(NC(=O)C2CC2)c1 |  | 88 | 57 | 3 | 
CC(C)C(=O)Nc1cc(C(=O)Nc2cnccc2OCCC(C)(C)O)ccn1 | 2.8 |  |  |  | 
CC1(C)COCCN1c1ccncc1NC(=O)c1ccnc(NC(=O)C2CC2)c1 |  | 0.9 | 0.4 | 0.4 | 
O=C(Nc1cnccc1N1CCCCC1)c1ccnc(NC(=O)C2CC2)c1 |  | 17 | 6 | 1 | 
O=C(Nc1cnccc1C(=O)C(F)(F)F)c1ccnc(NC(=O)C2CC2)c1 |  | 85 | 79 | 57 | 
O=C(Nc1cncc(-c2ccccc2F)c1)c1ccnc(NC(=O)C2CC2)c1 | 3 | 88 |  | 90 | inactive
CC(C)c1ccncc1NC(=O)c1ccnc(NC(=O)C2CC2)c1 |  | 87 | 78 | 14 | 
O=C(Nc1cnccc1C(F)(F)F)c1ccnc(NC(=O)C2CC2)c1 |  | 99 | 100 | 86 | 
CC1(C)CN(c2ccncc2NC(=O)c2ccnc(NC(=O)C3CC3)c2)CCO1 |  | 35 | 16 | 0.4 | 
O=C(Nc1cnccc1N1CCOCC1)c1ccnc(NC(=O)C2CC2)c1 |  | 84 | 63 | 2 | 
C[C@@H]1CN(c2ccncc2NC(=O)c2ccnc(NC(=O)C3CC3)c2)CCO1 |  | 56 | 36 | 3 | 
C[C@@H]1COCCN1c1ccncc1NC(=O)c1ccnc(NC(=O)C2CC2)c1 |  | 4 | 1 | 0.2 | 
O=C(Nc1cnccc1-c1ccccc1)c1ccnc(NC(=O)C2CCC2)c1 | 5.7 |  |  |  | 
O=C(Nc1cnccc1C(O)C(F)(F)F)c1ccnc(NC(=O)C2CC2)c1 (centres undefined) | 3.6 | 86 | 82 | 35 | 
C[C@H]1CN(c2ccncc2NC(=O)c2ccnc(NC(=O)C3CC3)c2)CCO1 |  | 66 | 40 | 1 | 
